This passage reports melting point results from patent US20190211024A1 (priority 2016, published 2019).

By melting point is commonly meant the temperature, or range, at which the solid turns liquid.

The compound `CC(C)SN1C=Cn2c(nc(=O)n2[N+](=O)[O-])N1.O.O` (hydrate or solvate) showed a melting point of 185 °C.
